Source: patent US9463186B2, “Treatment for dopaminergic disorders” (Northwestern University, priority 2013, dated 2016)
“Also recorded” adds a separate entry of the source.

Legend:
SNc dopaminergic neurons [1] = conditions: Fluo4 and 2PLSM; FIG. 6
SNc dopaminergic neurons [2] = conditions: brain slice taken following rasagiline treatment; FIG. 6
SNc DA neurons [3] = conditions: acute treatment at the time of measurement; FIG. 7c-d
SNc DA neurons [4] = experiment: Mito-roGFP imaging of mitochondrial oxidant stress after chronic drug treatment by s.c. osmotic minipumps; type: in vivo, mice; conditions: for dose dependence of the effect of chronic administration on mitochondrial oxidant stress: 1 week via s.c. osmotic minipump, isradipine 0.03, 0.3, 3 mg/kg/day, rasagiline 1 and 3 mg/kg/day, FIG. 8; for mitochondrial oxidant stress in SNc dopaminergic neurons, chronic treatment: chronic (1 week) s.c. osmotic minipumps, FIG. 7d
[5] = tested on: L-type calcium channels (Cav1.3) of SNc dopaminergic neurons; experiment: Whole cell patch clamp recordings of dopaminergic neurons in brain slices (Example 2); type: cell-based, mouse; conditions: for inhibition of L-type calcium channels: dihydropyridine antagonists, brain slice, FIG. 1 and FIG. 4

SMILES: C#CCN[C@@H]1CCc2ccccc21 [rasagiline]
- calcium entry linked to pacemaking (intracellular calcium oscillations) (SNc dopaminergic neurons [1]): no effect
- pacemaking of SNc dopaminergic neurons (SNc dopaminergic neurons [2]): no effect on pacemaking
- mitochondrial oxidant stress in SNc dopaminergic neurons, acute treatment (SNc DA neurons [3]): lowers mitochondrial oxidant stress
- dose dependence of the effect of chronic administration on mitochondrial oxidant stress (SNc DA neurons [4]): dose-dependent
- mitochondrial oxidant stress in SNc dopaminergic neurons, chronic treatment (SNc DA neurons [4]): diminished; also recorded: further lowers stress

SMILES: NC1=N[C@H](O)[C@H]2[C@H]3O[C@]4(O)O[C@@H]([C@@H](O)[C@@]2(N1)[C@@H]4O)[C@]3(O)CO [tetrodotoxin]
- spikes and underlying oscillations that drive pacemaking [5]: eliminates spikes but not the underlying oscillations

SMILES: COC(=O)C1=C(C)NC(C)=C(C(=O)OC(C)C)C1c1cccc2nonc12 (stereo not drawn) [isradipine, 3,5-pyridinedicarboxylic acid, 4-(4-benzofurazanyl)-1,4-dihydro-2,6-dimethyl-, methyl 1-methylethyl ester]
- pacemaking during sustained blockade of Cav1.3 channels ([5]; adult SNc dopaminergic neuron, before, during and after application, FIG. 4): restores pacemaking and dopaminergic neuron cell function through an altered pacemaking mechanism
- inhibition of L-type calcium channels [5]: inhibited
- dose dependence of the effect of chronic administration on mitochondrial oxidant stress (SNc DA neurons [4]): dose-dependent
- mitochondrial oxidant stress in SNc dopaminergic neurons, chronic treatment (SNc DA neurons [4]): diminished

SMILES: COCCOC(=O)C1=C(C)NC(C)=C(C(=O)OC(C)C)C1c1cccc([N+](=O)[O-])c1 (stereo not drawn) [nimodipine, isopropyl 2-methoxyethyl 1,4-dihydro-2,6-dimethyl-4-(m-nitrophenyl)-3,5-pyridinedicarboxylate]
- inhibition of L-type calcium channels [5]: inhibited
- autonomous pacemaking of dopaminergic neurons ([5]; tissue slice from an adult, FIGS. 1a-d): inhibits autonomous pacemaking
